In brackets after ≈: the same amount, converted by molar mass.
Tested on: M. tuberculosis clinical isolates, resistant
Assay: microbe, parasite or virus in culture
Format: cell-based, Mycobacterium tuberculosis
Conditions: Mycobacterium tuberculosis, read-out: MIC against Clinical isolates Resistant

Molecule | MIC
CC(=O)Nc1ccc(C(=O)CCC(=O)NC[C@H]2CN(c3ccc(-c4nc[nH]n4)c(F)c3)C(=O)O2)cc1 [Compound 50, (S)-N-[[3-(3-fluoro-4-(1,2,4-triazolyl)phenyl)-2-oxo-5-oxazolidinyl]methyl]-4-(4-acetamidophenyl)-4-oxobutanamide] | 2 to 4 µg/mL (≈ 4.04 to 8.09 µM)
O=C(CCC(=O)c1ccc2ccccc2c1)NC[C@H]1CN(c2ccc(-c3nc[nH]n3)c(F)c2)C(=O)O1 [Compound 48, (S)-N-[[3-(3-fluoro-4-(1,2,4-triazolyl)phenyl)-2-oxo-5-oxazolidinyl]methyl]-4-(2-naphthyl)-4-oxobutanamide] | 2 to 8 µg/mL (≈ 4.1 to 16.4 µM)
CCCc1ccc(C(=O)CCC(=O)NC[C@H]2CN(c3ccc(-c4nc[nH]n4)c(F)c3)C(=O)O2)c(C)c1 [Compound 46, (S)-N-[[3-(3-fluoro-4-(1,2,4-triazolyl)phenyl)-2-oxo-5-oxazolidinyl]methyl]-4-(2′-methyl-4-propylphenyl)-4-oxobutanamide] | 2 to 8 µg/mL (≈ 4.05 to 16.2 µM)
O=C(CCC(=O)c1ccc(Cl)cc1)NC[C@H]1CN(c2ccc(-c3nc[nH]n3)c(F)c2)C(=O)O1 [Compound 49, (S)-N-[[3-(3-fluoro-4-(1,2,4-triazolyl)phenyl)-2-oxo-5-oxazolidinyl]methyl]-4-(4-chlorophenyl)-4-oxobutanamide] | 4 to 16 µg/mL (≈ 8.48 to 33.9 µM)
O=C(CCC(=O)c1cccs1)NC[C@H]1CN(c2ccc(-c3nc[nH]n3)c(F)c2)C(=O)O1 [Compound 47, (S)-N-[[3-(3-fluoro-4-(1,2,4-triazolyl)phenyl)-2-oxo-5-oxazolidinyl]methyl]-4-oxo-4-(2-thienyl)butanamide] | 2 to 4 µg/mL (≈ 4.51 to 9.02 µM)
Cc1ccc(C(=O)CCC(=O)NC[C@H]2CN(c3ccc(-c4nc[nH]n4)c(F)c3)C(=O)O2)c(C)c1 [Compound 43, (S)-N-[[3-(3-fluoro-4-(1,2,4-triazolyl)phenyl)-2-oxo-5-oxazolidinyl]methyl]-4-(2,4-dimethylphenyl)-4-oxobutanamide] | 1 to 2 µg/mL (≈ 2.15 to 4.3 µM)
CC(=O)NC[C@H]1CN(c2ccc(N3CCOCC3)c(F)c2)C(=O)O1 [Linezolid, (S)-N-[[3-[3-fluoro-4-(4-morpholinyl)phenyl]-2-oxo-5-oxazolidin-yl]methyl]-acetamide, reference compound] | 1 to 2 µg/mL (≈ 2.96 to 5.93 µM)

Same assay, conditions: Table I; agar dilution

Molecule | MIC against Clinical isolates Resistant
Cc1ccc(C(=O)CCC(=O)NC[C@H]2CN(c3ccc(-n4nnc5ccccc54)c(F)c3)C(=O)O2)c(C)c1 [Compound 27, (S)-N-[[3-(3-fluoro-4-benzotriazolylphenyl)-2-oxo-5-oxazolidinyl]methyl]-4-(2,4-dimethylphenyl)-4-oxobutanamide] | >16 µg/mL
O=C(CCC(=O)c1ccc(Cl)cc1)NC[C@H]1CN(c2ccc(-n3nnc4ccccc43)c(F)c2)C(=O)O1 [Compound 39, (S)-N-[[3-(3-fluoro-4-benzotriazolylphenyl)-2-oxo-5-oxazolidinyl]methyl]-4-(4-chlorophenyl)-4-oxobutanamide] | 2 to 8 µg/mL
CC(C)Cc1ccc(C(=O)CCC(=O)NC[C@H]2CN(c3ccc(N4CCOCC4)c(F)c3)C(=O)O2)cc1 [Compound 17] | 0.5 to 1.0 µg/mL
CSc1ccc(C(=O)CCC(=O)NC[C@H]2CN(c3ccc(N4CCCC4)c(F)c3)C(=O)O2)cc1 [Compound 56, (S)-N-[[3-(3-fluoro-4-pyrrolidinylphenyl)-2-oxo-5-oxazolidinyl]methyl]-4-oxo-4-(4-thiomethylphenyl)butanamide] | >16 µg/mL
(S)-N-[[3-(3-fluoro-4-(1,2,4-triazolyl)phenyl)-2-oxo-5-oxazolidinyl]methyl]-4-(2′,2′-dimethyl-4-ethylphenyl)-4-oxobutanamide [Compound 45] | 2 to 4 µg/mL
CSc1ccc(C(=O)CCC(=O)NC[C@H]2CN(c3ccc(N4CCOCC4)c(F)c3)C(=O)O2)cc1 [Compound 21, (S)-N-[[3-(3-fluoro-4-morpholinylphenyl)-2-oxo-5-oxazolidinyl]methyl]-4-oxo-4-(4-thiomethyl)phenylbutanamide] | 0.5(>16) μg/ml
O=C(CCC(=O)c1cccs1)NC[C@H]1CN(c2ccc([N+]3([O-])CCOCC3)c(F)c2)C(=O)O1 [Compound 31, (S)-N-[[3-(3-fluoro-4-morpholinylphenyl)-2-oxo-5-oxazolidinyl]methyl]-4-oxo-4-(2-thienyl)butanamide-N-oxide] | 1 to 4 µg/mL
O=C(C=CC(=O)c1ccccc1)NC[C@H]1CN(c2ccc(N3CCOCC3)c(F)c2)C(=O)O1 [Compound 34, (S)-N-[[3-(3-fluoro-4-morpholinylphenyl)-2-oxo-5-oxazolidinyl]methyl]-4-oxo-4-phenylbut-2-enamide] | >16 µg/mL
Cc1ccc(C(=O)CCC(=O)NC[C@H]2CN(c3ccc(N4CCOCC4)c(F)c3)C(=O)O2)cc1 [Compound 2, (S)-N-[[3-(3-fluoro-4-morpholinylphenyl)-2-oxo-5-oxazolidinyl]methyl]-4-(4-methylphenyl)-4-oxobutanamide] | 8 µg/mL (≈ 17 µM)
Cc1ccc(C(=S)CCC(=O)NC[C@H]2CN(c3ccc(N4CCOCC4)c(F)c3)C(=O)O2)cc1 [Compound 15, (S)-N-[[3-(3-fluoro-4-morpholinylphenyl)-2-oxo-5-oxazolidinyl]methyl]-4-(4-methylphenyl)-4-thiooxobutanamide] | >16 µg/mL
(S)-N-[[3-(3-fluoro-4-morpholinylphenyl)-2-oxo-5-oxazolidinyl]methyl]-4-[4-(2′,2′-dimethyl-4-ethylphenyl)-4-oxobutanamide [Compound 20] | 2 to 4 µg/mL
COc1ccc(C(=O)CCC(=O)NC[C@H]2CN(c3ccc(N4CCOCC4)c(F)c3)C(=O)O2)cc1 [Compound 13, (S)-N-[[3-(3-fluoro-4-morpholinylphenyl)-2-oxo-5-oxazolidinyl]methyl]-4-(4-methoxyphenyl)-4-oxobutanamide] | 2 to 4 µg/mL
O=C(CCC(=O)c1cccs1)NC[C@H]1CN(c2ccc(N3CCOCC3)c(F)c2)C(=O)O1 [Compound 19, (S)-N-[[3-(3-fluoro-4-morpholinylphenyl)-2-oxo-5-oxazolidinyl]methyl]-4-oxo-4-(2-thienyl)butanamide] | 2 µg/mL (≈ 4.33 µM)
CSc1ccc(C(=O)CCC(=O)NC[C@H]2CN(c3ccc(-n4cncn4)c(F)c3)C(=O)O2)cc1 [Compound 44, (S)-N-[[3-(3-fluoro-4-(1,2,4-triazolyl)phenyl)-2-oxo-5-oxazolidinyl]methyl]-4-oxo-4-(4-thiomethylphenyl)butanamide] | 1 to 4 µg/mL
O=C(CCC(=O)c1ccccc1)NC[C@H]1CN(c2ccc(N3CCSCC3)c(F)c2)C(=O)O1 [Compound 8, (S)-N-[[3-(3-fluoro-4-thiomorpholinylphenyl)-2-oxo-5-oxazolidinyl]methyl]-4-oxo-4-phenylbutanamide] | 2 to 4 µg/mL
O=C(CCC(=O)c1ccc2ccccc2c1)NC[C@H]1CN(c2ccc(N3CCOCC3)c(F)c2)C(=O)O1 [Compound 16, (S)-N-[[3-(3-fluoro-4-morpholinylphenyl)-2-oxo-5-oxazolidinyl]methyl]-4-(4-2-naphthyl)-4-oxobutanamide] | 0.5(>16) μg/ml
O=C(CCC(=O)c1cccs1)NC[C@H]1CN(c2ccc(N3CCCC3)c(F)c2)C(=O)O1 [Compound 28, (S)-N-[[3-(3-fluoro-4-pyrrolidinylphenyl)-2-oxo-5-oxazolidinyl]methyl]-4-oxo-4-(2-thienyl)butanamide] | 2 to 8 µg/mL
(S)-N-[[3-(3-fluoro-4-(1,2,4-triazolyl)phenyl)-2-oxo-5-oxazolidinyl]methyl]-4-oxo-4-phenylbutanamide [Compound 40] | 1 to 2 µg/mL
O=C(C=CC(=O)c1ccccc1)NC[C@H]1CN(c2ccc(N3CCCCC3)c(F)c2)C(=O)O1 [Compound 55, (S)-N-[[3-(3-fluoro-4-piperidylphenyl)-2-oxo-5-oxazolidinyl]methyl]-4-oxo-4-phenylbut-2-enamide] | >16 µg/mL
O=C(CCC(=O)c1ccc2ccccc2c1)NC[C@H]1CN(c2ccc(N3CCCC3)c(F)c2)C(=O)O1 [Compound 57, (S)-N-[[3-(3-fluoro-4-pyrrolidinylphenyl)-2-oxo-5-oxazolidinyl]methyl]-4-(2-naphthyl)-4-oxobutanamide] | >16 µg/mL
CC(=O)Nc1ccc(C(=O)CCC(=O)NC[C@H]2CN(c3ccc(N4CCCCC4)c(F)c3)C(=O)O2)cc1 [Compound 54, (S)-N-[[3-(3-fluoro-4-piperidylphenyl)-2-oxo-5-oxazolidinyl]methyl]-4-(4-acetamidophenyl)-4-oxobutanamide] | >16 µg/mL
O=C(CCC(=O)c1ccccc1)NC[C@H]1CN(c2ccc(N3CCOCC3)c(F)c2)C(=O)O1 [Compound 1, (S)-N-[[3-(3-fluoro-4-morpholinylphenyl)-2-oxo-5-oxazolidinyl]methyl]-4-oxo-4-phenylbutanamide] | >16 µg/mL
O=C(CCC(=O)c1ccc2ccccc2c1)NC[C@H]1CN(c2ccc([N+]3([O-])CCOCC3)c(F)c2)C(=O)O1 [Compound 30, (S)-N-[[3-(3-fluoro-4-morpholinylphenyl)-2-oxo-5-oxazolidinyl]methyl]-4-(4-2-naphthyl)-4-oxobutanamide-N-oxide] | 0.5 to 2 µg/mL
O=C(CCC(=O)c1ccc(Cl)cc1)NC[C@H]1CN(c2ccc(N3CCCCC3)c(F)c2)C(=O)O1 [Compound 36, (S)-N-[[3-(3-fluoro-4-piperidylphenyl)-2-oxo-5-oxazolidinyl]methyl]-4-(4-chlorophenyl)-4-oxobutanamide] | 4 to 8 µg/mL
CC(C)Cc1ccc(C(=O)CCC(=O)NC[C@H]2CN(c3ccc([N+]4([O-])CCOCC4)c(F)c3)C(=O)O2)cc1 [Compound 33] | 0.5 to 2 µg/mL
COc1ccc(C(=O)CCC(=O)NC[C@H]2CN(c3ccc(N4CCCCC4)c(F)c3)C(=O)O2)cc1 [Compound 35, (S)-N-[[3-(3-fluoro-4-piperidylphenyl)-2-oxo-5-oxazolidinyl]methyl]-4-(4-methoxyphenyl)-4-oxobutanamide] | 4 to 8 µg/mL

Same assay, conditions: Table II

Molecule | MIC M. tuberculosis Resistant
O=C(CCC(=O)c1ccc2ccccc2c1)NC[C@H]1CN(c2ccc([N+]3([O-])CCOCC3)c(F)c2)C(=O)O1 [Compound 30, (S)-N-[[3-(3-fluoro-4-morpholinylphenyl)-2-oxo-5-oxazolidinyl]methyl]-4-(4-2-naphthyl)-4-oxobutanamide-N-oxide] | 0.50 to 2.0 µg/mL
